In PubChem BioAssay (NCI):
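Growth conditions: 96-well plates. Treatment: test compound, 48 hours, 5 concentrations. Analysis: linear interpolation between bracketing concentrations; unreached endpoints set to highest concentration. At the GI50, growth is halved. Definition used: TGI = concentration required for complete inhibition of growth.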

How the values were obtained:
Experiment in all cases: NCI tumour cell line growth inhibition, 48 h
M14 melanoma = system: M14 melanoma
HT29 colon = system: HT29 colon
UO-31 renal = system: UO-31 renal
SR leukemia = system: SR leukemia
HOP-62 NSCLC = system: HOP-62 NSCLC
A549 NSCLC = system: A549 NSCLC
HOP-92 NSCLC = system: HOP-92 NSCLC
SF-268 CNS = system: SF-268 CNS
COLO 205 colon = system: COLO 205 colon
DU-145 prostate = system: DU-145 prostate

| Structure (SMILES) | TGI (M14 melanoma) [µM] | TGI (HT29 colon) [µM] | TGI (UO-31 renal) [µM] | TGI (SR leukemia) [µM] | TGI (HOP-62 NSCLC) [µM] | TGI (A549 NSCLC) [µM] | TGI (HOP-92 NSCLC) [µM] | TGI (SF-268 CNS) [µM] | TGI (COLO 205 colon) [µM] | GI50 (M14 melanoma) [µM] | GI50 (HT29 colon) [µM] | GI50 (DU-145 prostate) [µM] | TGI (DU-145 prostate) [µM] | GI50 (UO-31 renal) [µM] | GI50 (HOP-62 NSCLC) [µM] | GI50 (A549 NSCLC) [µM] | GI50 (COLO 205 colon) [µM] | GI50 (HOP-92 NSCLC) [µM] | GI50 (SF-268 CNS) [µM] | GI50 (SR leukemia) [µM] |
| --- | --- | --- | --- | --- | --- | --- | --- | --- | --- | --- | --- | --- | --- | --- | --- | --- | --- | --- | --- | --- |
| COc1cc2c3cc1Oc1c(OC)c(OC)cc4c1[C@@H](Cc1ccc(O)c(c1)Oc1ccc(cc1)C[C@@H]3N(C)CC2)N(C)CC4 | 16.7 | 24.1 | 30.1 | 4.95 | 36 | 62 | 24.7 | 45.6 |  |  |  |  |  |  |  |  |  |  |  |  |
| Cc1cc(Cl)ccc1N=C1NC(=O)C(CC(=O)Nc2cccc(C)c2C)S1 (stereo not given) | 50.9 | > 100 | 51.5 |  | 62.6 | 96.3 | 26.5 | > 100 | 46.2 |  |  |  |  |  |  |  |  |  |  |  |
| CN(CCCN1C(=O)c2cccc3cc([N+](=O)[O-])cc(c23)C1=O)CCN(C)CCCN1C(=O)c2cccc3cc([N+](=O)[O-])cc(c23)C1=O | > 39.3 | > 39.3 |  |  | > 39.3 | > 39.3 |  | > 39.3 | > 39.3 |  |  |  |  |  |  |  |  |  |  |  |
| CC1=CC(C)(C)Nc2ccc(Cc3ccc4c(c3)C(C)=CC(C)(C)N4)cc21 | > 100 | > 100 | 65.8 |  | > 100 | > 100 | 65.6 | > 100 | 45.2 | 28.4 | 12.2 | 10.1 | 76.1 | 7.27 | 21.3 | 12.2 | 20.3 | 8.42 | 16.6 |  |
| COc1cc2c3c(n(CCN4CCOCC4)c(=O)c2cc1OC)-c1ccccc1C3=O | > 100 | > 100 | > 100 |  | > 100 | > 100 | > 100 | > 100 | > 100 | > 100 | > 100 | > 100 | > 100 | 63.3 | 89.4 | > 100 | > 100 | > 100 | > 100 |  |
| CCOC(=O)C(=O)Nc1c(C)cccc1C(C)(C)C | > 100 | > 100 | > 100 |  | > 100 |  | > 100 | > 100 | > 100 |  |  |  |  |  |  |  |  |  |  |  |
| CC(C)N1C(C)[C@@H](c2ccccc2)O[P@@]1(=O)CC1=CCCCC1 (stereo not given in full) | > 100 | > 100 | > 100 | > 100 | > 100 | > 100 | > 100 | > 100 | > 100 |  |  |  |  |  |  |  |  |  |  |  |
| O=[N+]([O-])c1cccc(S(=O)(=O)N/N=C/c2cc(I)cc([N+](=O)[O-])c2O)c1 | 77 | 73.6 | 67.5 | 60.9 | 57.2 | > 100 | 35.1 | 79.3 | 31.7 |  |  |  |  |  |  |  |  |  |  |  |
| Nn1c(-c2cccc(Cl)c2)nc2ccccc2c1=O | > 100 | > 100 | > 100 |  | > 100 | > 100 | > 100 | > 100 | > 100 |  |  |  |  |  |  |  |  |  |  |  |
| O=[N+]([O-])c1ccc(C2SCc3nc4ccccc4n32)cc1 (stereo not given) |  | > 100 | > 100 | > 100 | > 100 | > 100 | 91.3 | > 100 | > 100 |  |  |  |  |  |  |  |  |  |  |  |
| CC(=O)[CH-]C(=O)c1ccccc1.CC(=O)[CH-]C(=O)c1ccccc1.CC[C@H](/C=C/C(C)[C@H]1CCC2[C@@H]3CC=C4C[C@@H]([O-])CC[C@]4(C)C3CC[C@@]21C)C(C)C.CC[C@H](/C=C/C(C)[C@H]1CCC2[C@@H]3CC=C4C[C@@H]([O-])CC[C@]4(C)C3CC[C@@]21C)C(C)C.Cl.[Ti+4] (stereo not given in full) | > 25 | > 25 | > 25 |  | > 25 | > 25 |  | > 25 | > 25 | > 25 | > 25 |  |  | > 25 | > 25 | > 25 | > 25 |  | > 25 |  |
| CCC[CH2][Sn]([CH2]CCC)([O]C(=O)c1cc(F)ccc1F)[O]C(=O)c1cc(F)ccc1F | 2.81 | 3.17 | 2.79 | 8.74 | 4.04 | 21 | 2.52 | 2.37 | 2.32 | 1.47 | 1.68 |  |  | 1.47 | 2.39 | 7.72 | 1.12 | 1.26 | 1.14 | 0.502 |
| Cc1ccc(-c2c3c(nn2-c2ccc(S(=O)(=O)NC(=O)NC4CCCCC4)cc2)-c2ccccc2C3)cc1 | 30.1 | > 100 | 2.64 |  | 38.2 | 44 | 15.8 | 28.6 | 30.4 | 14.8 | 24.3 | 14.3 | 28.7 | 1.33 | 18.8 | 20.2 | 12.1 | 2.65 | 11.5 |  |
| CCOC(=O)/C(C#N)=C\Sc1ccccc1 | 35.6 | 84.4 | 24.1 | 45.2 | 86.5 | > 100 | > 100 | 28.9 | 38.4 |  |  |  |  |  |  |  |  |  |  |  |
| COc1ccc(/C=C\c2cc(OC)c(OC)c(OC)c2)cc1OC(=O)CC(N)C(=O)O (stereo not given) |  | 39.6 | 58.6 |  | > 100 | 49.5 | 77.3 | 0.365 | 21 | 0.00046 | 4.65 |  | 0.0187 | 0.0017 |  | 0.00304 | 4.11 | 0.00339 | 0.000945 |  |
| O=C1c2ccn(CCCNC(CO)(CO)CO)c2C(=O)c2c1c(O)c1ccccc1c2O | 30.1 | > 46.3 | 30.3 |  | 17.9 | 36.8 | > 86.9 | > 100 | 29.4 | 14.1 | 15.4 | 11.5 | 25 | 13.4 | 2.43 | 16.9 | 13.2 | 40 | 24.2 |  |
| Cc1cc(-c2nc3n(c2/C=N/N=C(N)N)CCS3)c(C)s1 | 32.9 | 37.6 | 36.8 |  | 31.3 | 44.3 |  | 35.5 |  | 18.9 | 17.4 | 18.2 | 34.7 | 17.8 | 17.5 | 15.7 |  |  | 19.1 |  |
